US20080076703A1, “Compositions and methods for the enhanced uptake of therapeutic agents through the bladder epithelium” (Cell Genesys, Inc., priority 2003, published 2008)

Assays:
murine bladders [1] = experiment: Oregon Green 488 Paclitaxel uptake in bladder after intravesical instillation (fluorescence microscopy of bladder sections); format: in vivo, Balb/c mice; conditions: DDM pretreatment 5 min; Oregon Green 488 Paclitaxel 5 μg instilled, retained 15 min
Method: (§1) Female Balb/c mice were used due to the ease of urethral cannulation and intravesical instillation. All animals were housed according to institutional regulations for experimental animals. Balb/c mice (20 gm body weight) were anesthetized with Isoflurane, and a 24-gauge catheter was introduced through the urethra into the bladder. The residual urine was emptied and the bladder was flushed three times with 100 μL of PBS employing a 25-gauge needle inserted into the external end of the catheter. […]
(§2) 70 μL of the solution was intravesically instilled in the bladder and retained for 15 min after which the bladder was washed 3 times with 100 μL each of PBS. […] Triplicate samples were adjusted to 2.00 mL with 0.2 M carbonate buffer (pH=9.34) and spectrophotometric emission was measured at 538 nm following excitation at 485 nm. […]
On examination of the histological sections of the bladder that had been pretreated with PBS followed by the intravesical retention of Paclitaxel, it was observed that there were very small patchy areas of non-specifically bound drug on the luminal surface of the bladder (FIGS. 1A-1C). Most of the bladder surface was devoid of any fluorescence that indicated the absence of any entry of the drug into the bladder tissue. […]

[2] = test system: urothelium (GAG layer, tight junctions); experiment: Electron Microscopy of the DDM pretreated bladder; format: in vivo
murine bladders [3] = experiment: FITC-LC-TAT peptide uptake in bladder after intravesical instillation (fluorescence microscopy of bladder sections); format: in vivo, Balb/c mice; conditions: 0.1% DDM pretreatment; 5 μg FITC-LC-TAT instilled, retained 15 min
Method: as §1, with “catheter. After washing, bladder pretreatment was performed employing the various test reagents as follows: the pretreatment reagent (DDM) was diluted to the desired concentration in PBS, and the bladder was quickly rinsed twice with 100 μL each of the reagent. After the rinsing steps, 100 μL of the pretreatment reagent was introduced via the catheter and retained in the bladder for 5 minutes, followed by an additional quick rinse with the pretreatment reagent. The bladder was then washed three times with 100 μL each of PBS.” for “catheter.”
as §2

Mouse bladders = experiment: Systemic uptake of intravesically instilled sodium fluorescein (serum fluorescence); format: in vivo, Balb/c mice; conditions: 0.1% DDM pretreatment 5 min, 0.1% sodium fluorescein instilled, retained 15 min
Method: as §1, §2
Fluorescein has been used to measure alterations in bladder permeability after bladder mucosal injury in mice [Eichel, L. et al., (2001) Urology. […] Following 3× wash of the bladder with PBS, blood was removed from the mice via cardiac puncture and the serum was analyzed for systemic distribution of intravesically instilled sodium fluorescein as described above. […]

bladder tissue = conditions: after DDM pretreatment; cited from earlier work

CCCCCCCCCCCCO[C@@H]1O[C@H](CO)[C@@H](O[C@H]2O[C@H](CO)[C@@H](O)[C@H](O)[C@H]2O)[C@H](O)[C@H]1O [DDM, n-dodecyl-β-D-maltoside]
uptake of Paclitaxel into bladder tissue (fluorescence) (murine bladders [1]): significant uptake
GAG layer on the urothelium (electron microscopy) [2]: absent
tight junctions along the surface (electron microscopy) [2]: Disruption of tight junctions
FITC-LC-TAT fluorescent signal in epithelial layer on luminal surface of bladder (murine bladders [3]): distinct signal
increase in the circulating levels of fluorescein as compared to PBS pretreatment (Mouse bladders): 5-10 ×
penetration of adenovirus particles (70 nm to 100 nm) into bladder tissue (bladder tissue): able to penetrate the bladder tissue
